The target of one data set is T1, VEGF-A165/NRP-1 complex (Homo sapiens, UniProt O14786).
T1 construct: purchased R&D Systems
T1 sequence (O14786 22-641 limits assumed): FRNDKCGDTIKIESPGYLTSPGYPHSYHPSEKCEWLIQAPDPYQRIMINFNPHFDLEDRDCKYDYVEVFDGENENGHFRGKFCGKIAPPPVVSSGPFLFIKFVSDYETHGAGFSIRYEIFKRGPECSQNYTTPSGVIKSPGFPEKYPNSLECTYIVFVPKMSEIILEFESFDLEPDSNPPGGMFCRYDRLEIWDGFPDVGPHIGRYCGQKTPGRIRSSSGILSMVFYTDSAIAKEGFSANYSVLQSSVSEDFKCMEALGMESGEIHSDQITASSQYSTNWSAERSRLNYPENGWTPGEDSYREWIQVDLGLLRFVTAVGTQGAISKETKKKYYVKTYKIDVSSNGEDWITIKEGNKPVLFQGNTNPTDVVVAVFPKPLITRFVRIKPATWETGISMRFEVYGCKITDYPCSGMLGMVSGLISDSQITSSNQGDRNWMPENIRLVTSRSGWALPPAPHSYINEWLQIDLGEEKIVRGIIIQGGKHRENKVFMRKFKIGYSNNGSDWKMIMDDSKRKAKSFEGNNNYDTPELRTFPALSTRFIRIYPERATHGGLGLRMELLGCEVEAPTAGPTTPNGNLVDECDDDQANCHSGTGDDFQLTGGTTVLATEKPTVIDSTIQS
The data set can be described thus: Competitive ELISA-like assay, inhibition of bt-VEGF-A165 binding to immobilized NRP-1. The following applies: recombinant human NRP-1, bt-VEGF-A165, chemiluminescence; read-out: IC50, VEGF-A165/NRP-1 complex inhibitory effect. As for the experimental part:
Inhibitory activity of urea–peptide hybrids against VEGF-A165/NRP-1 complex formation was assessed with a screening ELISA-like assay. NRP-1 was immobilized on microplate wells by simple adsorption and urea–peptide hybrids competed for NRP-1 with biotinylated VEGF-A165 (bt-VEGF-A165). The amount of receptor bound bt-VEGF-A165 was visualized by its interaction with the streptavidin–horseradish peroxidase conjugate (strep-HRP) and the chemiluminescent substrate. The first analyzed group of compounds were analogues 1–3 with the urea bond between L1 and L2. […] The best hybrid in this group was compound 3, which had Lys^U (gDab) branching (where “g” corresponds to guanidinium group), but its IC50 value decreased only 2-fold. Therefore, we assume that no additional interactions between urea bond and the surface of the protein occurred. […] In the case of urea–peptide hybrids, the urea bond might be capable of forming additional hydrogen bonds with protein residues on the surface of NRP-1. The affinity of compounds may conceivably be affected by the colocation of the urea bond and the free amino group of hArg in the branching. In addition, for compounds 4–6, we can observe that decreasing the distance between the free amino group in the main chain and the urea bond in the branching has a positive effect on compounds’ affinity for NRP-1.
This method was previously described for NRP-1 [44, 45, 46]. Briefly, overnight coating at 4 °C of the flat bottom surface of a 96-well plate with 100 μL (200 ng/well) recombinant human NRP-1, NRP-2, VEGFR-1 or VEGFR-2 was followed by non-specific interactions blocking using 0.5% bovine serum albumin (BSA) in PBS. Next, 50 µL of urea–peptide hybrid in PBS and 50 µL (400 ng/mL) of human (bt)-VEGF-A165 in PBS containing 4 µg/mL of heparin were added respectively. Plates were incubated for 2 h at RT, and then washed and treated with streptavidin-horseradish peroxidase conjugate in PBS (1:8000). Next, 100 µL chemiluminescent substrate was added, and luminescence was quantified using Tecan Infinite F200Pro microplate reader (Männedorf, Switzerland). In a positive control (P) only (bt)-VEGF-A165 was present in wells. Not coated by receptor wells were treated as a negative control (N). Percentages of inhibition were calculated by the following formula:100% − [[(S − N)/(P − N)]∙100%](1) where S is the signal intensity measured in wells with urea–peptide hybrid. The IC50 of each urea–peptide hybrid was calculated using the nonlinear regression function with GraphPad Prism Version-5.01 (GraphPad Software, San Diego, CA, USA). Data are presented as log (inhibitor) versus normalized response-variable slope (Figure S16). Data are the means ± SEMs of two or three independent experiments, each performed in triplicate.

Data set [1] is described as follows: In vitro enzymatic stability in human blood serum (LC-SWATH-MS). The class given is in vitro ADME. To be noted: human blood serum (pooled from four healthy persons), 37 °C. As for the experimental part: Rapid renal clearance and enzymatic degradation are classified as most important disadvantages of peptides as drugs. Covalent linkage to plasma proteins or chemical modifications, including amide bond modifications, might improve their half-lives. We performed proteolytic stability studies in human blood serum to investigate whether the introduction of urea bonds affected the half-lives of compounds from each of synthesized group of hybrids. Compounds 3, 6 and 7 were incubated with human serum at 37 °C. Samples were taken at different time intervals and analyzed using LC-SWATH-MS [88, 89, 90]. […] Hybrids 6 and 7 were stable toward enzymatic degradation, with 50% of each compound still being intact after 96 h (Figure 5). […] Overall, it can be concluded that the substitution of an amide bond with a urea bond has a positive effect on the proteolytic stability of the examined inhibitors.
The study was conducted in full accordance with ethical principles in accordance with the ICH E6 (R2) Guideline for Good Clinical Practice and the Code of Good Customs in Science developed by the Polish Academy of Sciences. Signed consent for using serum was obtained from volunteers. The Rector’s Commission for Ethics of Scientific Research with Human Participation, University of Warsaw, Warsaw, Poland gave the ethical approval (approval number 51/2020). Human blood from four healthy persons was directly drawn into evacuated tubes and left undisturbed at room temperature for 1 h to clot. Tubes were centrifuged at 2500× g for 10 min to prevent possible platelet activation. Serum was pipetted out of the blood collection tubes, pooled and collected in microtubes.
A degradation assay was adapted from a method described previously. Human blood serum was preactivated in Eppendorf ThermoMixer® Comfort (Hamburg, Germany) at 37 °C for 20 min (350 rpm). Next, 20 μL of aqueous urea–peptide hybrid stock solution was added to give ∼750 μg/mL final compound concentration, and incubation was continued. At selected time intervals, 50 μL of the mixture was collected and quenched by adding 200 μL of ACN:H2O:FA mixture (89:10:1, v:v:v). The obtained suspension was vortexed for 1 min (3000 min^−1) and centrifuged for 10 min in 4 °C (11,000× g). 100 μL of supernatant was collected and lyophilized. The samples reconstituted in 1 mL of 10 mM ammonium formate with 0.1% FA were subjected to LC-MS. Relative concentration at time intervals was calculated using peak area of either individual or most intense fragment of compound of interest. Analyst software version 1.7.1 was used for data acquisition, Peak View 2.2 and MultiQuant 2.1 (Sciex, ON) were used for data processing. Detailed analytical data can be found in Supplementary Materials (Figures S17–S45). […]

pIC50: −log10 of the molar value. Starred links: 1 amine or outer side, 2 acyl side, 3 side chain; linkers in the order of their positions; H or OH if unused. Non-standard residues stand in square brackets, D forms with d. Residues, ends and D or L forms follow the SMILES beside them. Groups on a side chain read outwards from the residue. ξ: configuration not given here. *: point of attachment. Oic(3aξ,7aξ) = O=C(O)[C@@H]1CC2CCCCC2N1; X3 = N=C(N)NCCC[C@H](N)CN*; X2 = N=C(N)NCC[C@H](N)CN*; Orn = NCCC[C@H](N)C(=O)O; Dab = NCC[C@H](N)C(=O)O; CO = O=C([*:1])[*:2]

As for `N=C(N)NCCCC[C@H](N)C(=O)NCC[C@H](N)CNC(=O)N[C@@H](CCN)C(=O)N1C2CCCCC2C[C@H]1C(=O)N[C@@H](CCCNC(=N)N)C(=O)O` (stereo partly shown) [Compound 1], the pIC50 at VEGF-A165/NRP-1 complex was 5.74.

As for `N=C(N)NCCC[C@H](NC(=O)[C@@H]1CC2CCCCC2N1C(=O)[C@H](CCN)NC(=O)NC[C@@H](N)CCCNC(=O)[C@@H](N)CCCNC(=N)N)C(=O)O` (stereo partly shown) [Compound 2], at VEGF-A165/NRP-1 complex, the pIC50 was 5.68.

With `N=C(N)NCCC[C@H](NC(=O)[C@@H]1CC2CCCCC2N1C(=O)[C@H](CCN)NC(=O)NC[C@@H](N)CCCCNC(=O)[C@@H](N)CCNC(=N)N)C(=O)O` (stereo partly shown) [Compound 3], at VEGF-A165/NRP-1 complex, the pIC50 is 5.92. Moreover, in data set [1] (after 24 h, read-out: initial substrate concentration remaining), the remaining at 24 h is around 25%.

On to `N=C(N)NCCC[C@H](NC(=O)[C@@H]1CC2CCCCC2N1C(=O)[C@H](CCN)NC(=O)[C@@H](N)CCCCNC(=O)NC[C@@H](N)CCNC(=N)N)C(=O)O` (stereo partly shown) [Compound 4] (H-K([CO-X2])[Dab][Oic(3aξ,7aξ)]R-OH), for which the pIC50 on VEGF-A165/NRP-1 complex is 6.31.

Take `N=C(N)NCCC[C@H](N)CNC(=O)NCCC[C@H](N)C(=O)N[C@@H](CCN)C(=O)N1C2CCCCC2C[C@H]1C(=O)N[C@@H](CCCNC(=N)N)C(=O)O` (stereo partly shown) [Compound 5] (H-[Orn]([CO-X3])[Dab][Oic(3aξ,7aξ)]R-OH): on VEGF-A165/NRP-1 complex, the pIC50 was 6.44.

As to `N=C(N)NCCC[C@H](N)CNC(=O)NC[C@H](N)CNC(=O)N[C@@H](CCN)C(=O)N1C2CCCCC2C[C@H]1C(=O)N[C@@H](CCCNC(=N)N)C(=O)O` (stereo partly shown) [Compound 7], on VEGF-A165/NRP-1 complex, the pIC50 was 5.68. Moreover, the remaining at 96 h in data set [1] (after 96 h, read-out: compound still intact) was 50%.

Regarding `N=C(N)NCCC[C@H](NC(=O)[C@@H]1CC2CCCCC2N1C(=O)[C@H](CCN)NC(=O)NC[C@@H](N)CCNC(=O)NC[C@@H](N)CCNC(=N)N)C(=O)O` (stereo partly shown) [Compound 8], the pIC50 on VEGF-A165/NRP-1 complex is 5.68.

Take `N=C(N)NCCC[C@H](NC(=O)[C@@H]1CC2CCCCC2N1C(=O)[C@H](CCN)NC(=O)NC[C@@H](N)CCCNC(=O)NC[C@@H](N)CNC(=N)N)C(=O)O` (stereo partly shown) [Compound 9]: the pIC50 on VEGF-A165/NRP-1 complex is 5.74.

For the origin of these results see article PMC7793531 (International Journal of Molecular Sciences, 2020).
